Measured values as given in patent US4396613A, “23-Ester derivatives of DMT and method of using same” (Eli Lilly and Company, priority 1981, dated 1983).
In brackets after ≈: the same amount, converted by molar mass.

Experiments:
Type in all cases: cell-based
[1] = test system: Staphylococcus aureus X400; assay: standard agar-dilution assay (MIC); conditions: Staphylococcus aureus X400, methicillin-resistant strain, unit assumed
Procedure: (§1) The MIC's in Table II were determined by standard agar-dilution assays. The MIC's in Table III were obtained using a conventional broth-dilution microtiter test.
^c Methicillinresistant-strain

[2] = test system: Streptococcus pneumoniae Park I; conditions: agar dilution, unit assumed
Procedure: as §1

[3] = test system: Staphylococcus aureus V41; assay: standard agar-dilution assay (MIC); conditions: Staphylococcus aureus V41, penicillin-resistant strain, unit assumed
Procedure: as §1
^b Penicillinresistant strain

[4] = test system: Staphylococcus aureus S13E; assay: standard agar-dilution assay (MIC); conditions: unit assumed
Procedure: as §1

[5] = test system: Streptococcus pyogenes C203; assay: standard agar-dilution assay (MIC); conditions: unit assumed
Procedure: as §1

Streptococcus Group 9960 = assay: standard agar-dilution assay (MIC); conditions: unit assumed
Procedure: as §1

[6] = test system: Streptococcus Group D X66; assay: standard agar-dilution assay (MIC); conditions: unit assumed
Procedure: as §1

[7] = test system: Staphylococcus epidermidis EPI2; assay: standard agar-dilution assay (MIC); conditions: unit assumed
Procedure: as §1

[8] = test system: Haemophilus influenzae R252; assay: standard agar-dilution assay (MIC); conditions: Haemophilus influenzae R252, ampicillin-resistant strain, unit assumed
Procedure: as §1

[9] = test system: Staphylococcus epidermidis EPI1; assay: standard agar-dilution assay (MIC); conditions: unit assumed
Procedure: as §1

[10] = test system: Haemophilus influenzae Holt; assay: standard agar-dilution assay (MIC); conditions: ampicillin-sensitive strain, unit assumed
Procedure: as §1

[11] = test system: Staphylococcus aureus X1.1; assay: standard agar-dilution assay (MIC); conditions: unit assumed
Procedure: as §1

Streptococcus sp. 80 = assay: conventional broth-dilution microtiter test (MIC); conditions: unit assumed
Procedure: as §1

Staphylococcus aureus = assay: conventional broth-dilution microtiter test (MIC); conditions: unit assumed
Procedure: as §1

Mycoplasma hyorhinis = assay: conventional broth-dilution microtiter test (MIC); conditions: unit assumed
Procedure: as §1

Mycoplasma gallisepticum = assay: conventional broth-dilution microtiter test (MIC); conditions: unit assumed
Procedure: as §1

[12] = test system: Pasteurella multocida 17E; assay: conventional broth-dilution microtiter test (MIC); conditions: bovine isolate, unit assumed
Procedure: as §1

[13] = test system: Pasteurella multocida 60A; assay: conventional broth-dilution microtiter test (MIC); conditions: avian isolate, unit assumed
Procedure: as §1

Mycoplasma synoviae = assay: conventional broth-dilution microtiter test (MIC); conditions: unit assumed
Procedure: as §1

| Structure (SMILES) | MIC [1] | MIC [2] | MIC [3] | MIC [4] | MIC [5] | MIC (Streptococcus Group 9960) | MIC [6] | MIC [7] | MIC [8] | MIC [9] | MIC [10] | MIC [11] | MIC (Streptococcus sp. 80) | MIC (Staphylococcus aureus) | MIC (Mycoplasma hyorhinis) | MIC (Mycoplasma gallisepticum) | MIC [12] | MIC [13] | MIC (Mycoplasma synoviae) |
| --- | --- | --- | --- | --- | --- | --- | --- | --- | --- | --- | --- | --- | --- | --- | --- | --- | --- | --- | --- |
| CCC1OC(=O)CC(O)C(C)C(OC2OC(C)C(OC3CC(C)(O)C(O)C(C)O3)C(N(C)C)C2OC(C)=O)C(CC=O)CC(C)C(=O)C=CC(C)=CC1COC(=O)Cc1ccccc1 (stereo not shown) [Compound 9, 2'-O-Acetyl-23-O-phenylacetyl-DMT] | 0.5 mg/L (≈ 0.554 µM) | 0.015 mg/L (≈ 0.0166 µM) | 0.5 mg/L (≈ 0.554 µM) | 0.5 mg/L (≈ 0.554 µM) | 0.125 mg/L (≈ 0.139 µM) | 0.25 mg/L (≈ 0.277 µM) | 0.5 mg/L (≈ 0.554 µM) | 0.5 mg/L (≈ 0.554 µM) | 4 mg/L (≈ 4.43 µM) | 0.5 mg/L (≈ 0.554 µM) | 4 mg/L (≈ 4.43 µM) | 0.5 mg/L (≈ 0.554 µM) | ≤ 0.048 mg/L | 0.195 mg/L (≈ 0.216 µM) | 0.78 mg/L (≈ 0.865 µM) | ≤ 0.048 mg/L | 3.12 mg/L (≈ 3.46 µM) | 6.25 mg/L (≈ 6.93 µM) |  |
| CCC1OC(=O)CC(O)C(C)C(OC2OC(C)C(OC3CC(C)(O)C(O)C(C)O3)C(N(C)C)C2OC(C)=O)C(CC=O)CC(C)C(=O)C=CC(C)=CC1COC(=O)COc1ccccc1 (stereo not shown) [Compound 12, 2'-O-Acetyl-23-O-phenoxyacetyl-DMT] | 0.5 mg/L (≈ 0.545 µM) |  | 0.25 mg/L (≈ 0.272 µM) | 0.5 mg/L (≈ 0.545 µM) | 0.125 mg/L (≈ 0.136 µM) | 0.5 mg/L (≈ 0.545 µM) | 0.5 mg/L (≈ 0.545 µM) | 0.5 mg/L (≈ 0.545 µM) | 8 mg/L (≈ 8.71 µM) | 0.5 mg/L (≈ 0.545 µM) | 16 mg/L (≈ 17.4 µM) | 0.25 mg/L (≈ 0.272 µM) | 0.195 mg/L (≈ 0.212 µM) | 0.39 mg/L (≈ 0.425 µM) | 6.25 mg/L (≈ 6.81 µM) | 0.097 mg/L (≈ 0.106 µM) | 6.25 mg/L (≈ 6.81 µM) | 6.25 mg/L (≈ 6.81 µM) | 0.78 mg/L (≈ 0.85 µM) |
| CCC1OC(=O)CC(O)C(C)C(OC2OC(C)C(OC3CC(C)(O)C(O)C(C)O3)C(N(C)C)C2OC(C)=O)C(CC=O)CC(C)C(=O)C=CC(C)=CC1COC(=O)Cc1ccc(Cl)cc1 (stereo not shown) [Compound 14, 2'-O-Acetyl-23-O-(p-chlorophenylacetyl)-DMT] | 2 mg/L (≈ 2.14 µM) |  | 2 mg/L (≈ 2.14 µM) | 1 mg/L (≈ 1.07 µM) | 0.5 mg/L (≈ 0.534 µM) | 1 mg/L (≈ 1.07 µM) | 1 mg/L (≈ 1.07 µM) | 2 mg/L (≈ 2.14 µM) | 4 mg/L (≈ 4.27 µM) | 1 mg/L (≈ 1.07 µM) | 4 mg/L (≈ 4.27 µM) | 0.5 mg/L (≈ 0.534 µM) | 0.78 mg/L (≈ 0.833 µM) | 0.39 mg/L (≈ 0.416 µM) | 6.25 mg/L (≈ 6.67 µM) | < 0.048 mg/L | 3.12 mg/L (≈ 3.33 µM) | 6.25 mg/L (≈ 6.67 µM) | 0.78 mg/L (≈ 0.833 µM) |
| CCC1OC(=O)CC(O)C(C)C(OC2OC(C)C(OC3CC(C)(O)C(O)C(C)O3)C(N(C)C)C2OC(C)=O)C(CC=O)CC(C)C(=O)C=CC(C)=CC1COC(=O)Cc1ccc([N+](=O)[O-])cc1 (stereo not shown) [Compound 15, 2'-O-Acetyl-23-O-(p-nitrophenylacetyl)-DMT] | 0.5 mg/L (≈ 0.528 µM) |  | 0.5 mg/L (≈ 0.528 µM) | 0.25 mg/L (≈ 0.264 µM) | 0.125 mg/L (≈ 0.132 µM) | 0.25 mg/L (≈ 0.264 µM) | 0.25 mg/L (≈ 0.264 µM) | 0.5 mg/L (≈ 0.528 µM) | 4 mg/L (≈ 4.22 µM) | 0.5 mg/L (≈ 0.528 µM) | 8 mg/L (≈ 8.45 µM) | 0.25 mg/L (≈ 0.264 µM) | 0.39 mg/L (≈ 0.412 µM) | 1.56 mg/L (≈ 1.65 µM) | 0.78 mg/L (≈ 0.824 µM) | 0.39 mg/L (≈ 0.412 µM) | 3.12 mg/L (≈ 3.29 µM) | 6.25 mg/L (≈ 6.6 µM) | < 0.05 mg/L |
| CCC1OC(=O)CC(O)C(C)C(OC2OC(C)C(OC3CC(C)(O)C(O)C(C)O3)C(N(C)C)C2O)C(CC=O)CC(C)C(=O)C=CC(C)=CC1COC(=O)n1ccnc1 (stereo not shown) [Compound 22] | 1 mg/L (≈ 1.2 µM) |  | 1 mg/L (≈ 1.2 µM) | 0.5 mg/L (≈ 0.598 µM) | 0.25 mg/L (≈ 0.299 µM) | 0.5 mg/L (≈ 0.598 µM) | 1 mg/L (≈ 1.2 µM) | 0.5 mg/L (≈ 0.598 µM) | 8 mg/L (≈ 9.57 µM) | 0.5 mg/L (≈ 0.598 µM) | 16 mg/L (≈ 19.1 µM) | 0.5 mg/L (≈ 0.598 µM) | 1.56 mg/L (≈ 1.87 µM) | 6.25 mg/L (≈ 7.48 µM) | 1.56 mg/L (≈ 1.87 µM) | 3.12 mg/L (≈ 3.73 µM) | 12.5 mg/L (≈ 15 µM) | 25 mg/L (≈ 29.9 µM) | 1.56 mg/L (≈ 1.87 µM) |
| CCC1OC(=O)CC(O)C(C)C(OC2OC(C)C(OC3CC(C)(O)C(O)C(C)O3)C(N(C)C)C2OC(C)=O)C(CC=O)CC(C)C(=O)C=CC(C)=CC1COC(=O)NCc1ccccc1 (stereo not shown) [Compound 30] | 0.5 mg/L (≈ 0.545 µM) |  | 1 mg/L (≈ 1.09 µM) | 0.5 mg/L (≈ 0.545 µM) | 0.5 mg/L (≈ 0.545 µM) | 0.5 mg/L (≈ 0.545 µM) | 0.5 mg/L (≈ 0.545 µM) | 0.5 mg/L (≈ 0.545 µM) | 4 mg/L (≈ 4.36 µM) | 0.5 mg/L (≈ 0.545 µM) | 8 mg/L (≈ 8.72 µM) | 0.5 mg/L (≈ 0.545 µM) | 0.78 mg/L (≈ 0.851 µM) |  | 1.56 mg/L (≈ 1.7 µM) | 0.39 mg/L (≈ 0.425 µM) |  | 12.5 mg/L (≈ 13.6 µM) | 0.78 mg/L (≈ 0.851 µM) |
